Patent US7194978B2, “Inducing sterility in fish by disrupting the development of the GnRH system” (University of Maryland Biotechnology Institute, priority 2003, dated 2007)

What was measured:
sGnRH gene expression = experiment: sGnRH transcript levels in seabream larvae after GABA immersion, quantitative RT-PCR; type: in vivo, gilthead seabream (Sparus aurata); settings: immersion in GABA 10^−7 to 10^−3 M for 18 hours, sampled 24 hours after treatment
Method: (§1) FIGS. 2A, B and C show the effect of GABA treatment on GnRH gene expression during development. Larvae were sampled 24 hours after overnight treatment at 3 days pf ( ? ), 1 week pf ( ? ) or 2 weeks pf ( ? ) and levels of GnRH transcript were measured by quantitative RT-PCR Values on the Y axis are expressed as copy number/20 ng total RNA. Values on the X axis range from 0 to 1 mM GABA. 100 ng total RNA was isolated from tissues using a modified acid-phenol extraction method (TRI REAGENT, MRC, Inc., Cincinnati, Ohio) and reverse transcribed into cDNA using random hexamers and MMLV reverse transcriptase. PCR was performed in 96-well plates on diluted cDNA templates using SYBR® Green PCR Core Reagent (PE Applied Biosystems, Foster City, Calif.) and the relevant GnRH primers. Primers were designed to span intron/exon boundaries in order to avoid amplification of genomic DNA. Amplification reactions were carried out using the ABI Prism® 7700 Sequence Detection System (PE Applied Biosystems), which consists of a built-in thermalcycler, laser irradiation and CCD detector system, and software analysis package. For each reaction, the Prism® 7700 generated an amplification plot of fluorescence signal versus cycle number, and CT (the fractional cycle number at which fluorescence passes a baseline threshold value) was determined (Fink et al., 1998). […] Quantitation of the amount of target in each sample was accomplished by comparing CT values of unknowns to standards to determine initial copy number. […]
(§2) Seabream. […] At 24 hours post-treatment, transcript levels for each of the 3 GnRHs in seabream were determined using real-time, fluorescence-based quantitative RT-PCR assays. […]
Seabream larvae at 3 days, 1 week and 2 weeks pf were immersed in various concentrations of GABA (10^−7 to 10^−3 M) for a period of 18 hours (200 larvae per treatment). Larvae were collected 24 hours after the treatments and transcript levels for each of the 3 GnRHs were determined using real-time, fluorescence-based quantitative RT-PCR assays.

cGnRH-II expression = experiment: cGnRH-II transcript levels in seabream larvae after GABA immersion, quantitative RT-PCR; type: in vivo, gilthead seabream (Sparus aurata); settings: 2-week-old seabream larvae; immersion in GABA 10^−7 to 10^−3 M for 18 hours; sampled 24 hours after treatment
Method: as §1, with “Primers were designed to span intron/exon boundaries in order to avoid amplification of genomic DNA. Amplification reactions were carried out using the ABI Prism® 7700 Sequence Detection System (PE Applied Biosystems), which consists of a built-in thermalcycler, laser irradiation and CCD detector system, and software analysis package.” left out
as §2

sbGnRH transcript levels = sbGnRH transcript levels in seabream larvae after GABA immersion, quantitative RT-PCR; type: in vivo, gilthead seabream (Sparus aurata); settings: seabream larvae 3 days, 1 week, 2 weeks pf; immersion in GABA 10^−7 to 10^−3 M for 18 hours
Method: as §1, with “Primers were designed to span intron/exon boundaries in order to avoid amplification of genomic DNA. Amplification reactions were carried out using the ABI Prism® 7700 Sequence Detection System (PE Applied Biosystems), which consists of a built-in thermalcycler, laser irradiation and CCD detector system, and software analysis package.” left out
as §2

[1] = tested on: forebrain (TN) GnRH neurons; experiment: Developmental migration of GnRH neurons in zebrafish larvae, whole-mount ISH; type: in vivo, zebrafish (Danio rerio); settings: sampled at 7, 9, 10, 12 days pf
Excerpt: Digoxigenin (DIG)-labeled complimentary RNA (cRNA) probe was synthesized from plasmid DNA, containing the seabream TN GnRH cDNA, using T7 RNA polymerase. The probe was hybridized to cellular TN GnRH mRNA in whole, fixed 3–22 days pf of larvae. The hybridized probe was then detected with anti-DIG antibody conjugated to alkaline phosphatase (Anti-DIG-AP), and the complex (mRNA:DIG-labeled cRNA:Anti-DIG-AP) was detected by an enzymatic reaction of AP with a chromogenic substrate, which forms a precipitating dark purple pigment. The procedure was performed according to a standard published protocol for whole-mount ISH (Westerfield et al., 1995). The age of the larvae are boxed on the top left of each photograph. TN GnRH-expressing cells are indicated by an arrow.
FIGS. 3A, B and C show the effect of GABA-ergic compounds on developmental migration of TN GnRH neurons in zebrafish. […] Note the extent of neuronal migration toward the brain seen in untreated fish, as compared to treated fish. Whole-mount ISH analysis was done as described in FIG. 1. Differential interference contrasting microscopy was used to visualize TN GnRH hybridization in deep tissue layers of the nasal placode. All panels at 200×.
Zebrafish. Zebrafish larvae 5–8 days post-fertilization (dpf) and 7–10 dpf were immersed in GABA (1 mM) or Muscimol (100 micromolar). […]

zebrafish gonads = experiment: Gonadal development in zebrafish, histological analysis of the gonads at 9 weeks; type: in vivo, zebrafish (Danio rerio); settings: histology after 9 weeks of growth
Method: FIGS. 4A. B and C show the effect of GABA-ergic compounds on gonadal development in zebrafish. Hematoxylineosin staining of gonadal tissues of 9-week old zebrafish exposed at 7–10 days pf to A) no treatment, B) 1 mM GABA and C) 100 μM Muscimol. Note greater degree of organization and more advanced gamete development in A), compared to B) and C). s: somatic cells; o: oogonia; v: oocytes in early stages of vitellogenesis; v*: vitellogenic oocytes with abnormal follicle development. A), C) at 200×; B) 400×.
Zebrafish. Zebrafish larvae 5–8 days post-fertilization (dpf) and 7–10 dpf were immersed in GABA (1 mM) or Muscimol (100 micromolar). Muscimol is a potent GABA agonist that acts specifically on GABAA receptor subtypes. Similar to the post-treatment assays conducted on seabream larvae, zebrafish tissue samples (n=12) were collected at 7, 9, 10, and 12 days pf and also after 9 weeks of growth for detection/analysis of GnRH neuron development and histological analysis of the gonads. […] Confirmation is made to determine the effectiveness of the treatment prior to sexual maturation (or lack thereof).
Zebrafish larvae were immersed in GABA (1 mM) or Muscimol (100 micromolar) at 5–8 days pf and 7–10 days pf. (Muscimol is a potent GABA agonist that acts specifically on GABAA receptor subtypes). Samples (n=12) were collected at 7, 9, 10, and 12 day pf for subsequent detection of GnRH neurons. […]

[2] = zebrafish larvae immersed in 1 mM GABA at 5–8 dpf and 7–10 dpf
[3] = zebrafish larvae immersed in 100 micromolar Muscimol at 5–8 dpf and 7–10 dpf

| SMILES | sGnRH gene expression (sGnRH gene expression; 1-week-old seabream larvae) | sGnRH gene expression (sGnRH gene expression; 2-week-old seabream larvae) | sGnRH gene expression (sGnRH gene expression; 3-day-old seabream larvae) | cGnRH-II expression (cGnRH-II expression) | sbGnRH transcript levels (sbGnRH transcript levels) | migration of the GnRH neurons [1, 2] | gonadal development (zebrafish gonads; [2]) | migration of the GnRH neurons [1, 3] | gonadal development (zebrafish gonads; [3]) |
| --- | --- | --- | --- | --- | --- | --- | --- | --- | --- |
| NCCCC(=O)O [GABA, Gamma-aminobutyric acid] | dose-dependent decrease | no effect | no effect | slight increase | no definitive effect seen | clearly inhibited | clearly inhibited |  |  |
| NCc1cc(=O)[nH]o1 [Muscimol] |  |  |  |  |  |  |  | clearly inhibited | clearly inhibited |
